These results are taken from publication PMC8300937, “New azolyl-derivatives as multitargeting agents against breast cancer and fungal infections: synthesis, biological evaluation and docking study” (Journal of Enzyme Inhibition and Medicinal Chemistry, 2021).

The target of data set [1] is aromatase. The settings on record: cited from earlier work.
The nature of data set [2]: Chemical stability in aqueous media at 37 °C (HPLC). The conditions noted are these: for Chemical stability in acidic medium: HCl solution pH = 2.0, 37 °C; for Chemical stability in acidic medium / Chemical stability in neutral medium: monitored for 24 h; for Chemical stability in neutral medium: Phosphate buffer pH = 7.4, 37 °C; for half-life at 0.05 mg/mL: NaOH solution pH = 9.0, 37 °C, read-out: half-life of hydrolysis in basic medium. The class given is physicochemical. How it is done:
Compounds 2 and 5 contain an ester linkage, therefore their chemical stability was evaluated. Phosphate buffer (pH = 7.4), HCl solution (pH = 2.0), NaOH solution (pH = 9.0) were adopted as media. […] Solutions were kept at 37 °C and monitored for 24 h.
A 0.01 M hydrochloric acid buffer (pH 2), as a non-enzymatic simulated gastric fluid (SGF), a 0.01 M phosphate buffer (pH 7.4) as non-enzymatic simulated intestinal fluid (SIF), and a 0.1 mM sodium hydroxide solution (pH 10) were used in this study. The reactions were initiated by adding 0.1 ml of compound stock solution (1 mg/mL in DMSO) to 1.9 ml aqueous buffer solution, in screw-capped vials at 37 ± 0.5 °C. Samples (5 µL) were withdrawn at appropriate intervals, i.e. after 5 min, 1 h, 2 h, 3 h, 4 h, 6 h, 8 h, and then after 24 h incubation time and analysed by HPLC.

The test system of data set [3] is MCF-7 breast cancer cell line. Put plainly: Cell metabolic activity (MTT assay). The class given is cell-based. The conditions noted are these: Homo sapiens, read-out: IC50 cell metabolic activity (MTT). The method, then:
(§1) Human breast cancer MCF-7 (HTB-22™) cells were purchased from ATCC® and maintained in Dulbecco’s Modified Eagle Medium (DMEM) high glucose supplemented with 10% of foetal bovine serum (FBS) and 1% of penicillin/streptomycin (all from Gibco-Thermofisher Scientific, MD, USA) at 37 °C and 5% CO2.
Cell metabolic activity of MCF-7 human breast cancer cells was assessed by MTT (3–(4,5-dimethylthiazol-2-yl)-2,5-diphenyltetrazolium bromide) test (Sigma Aldrich, Milan, Italy). Cells were seeded (0.1 × 10^4/well) in a 96-well tissue culture-treated plate (Falcon®, Corning Incorporated, NY, USA) and let them adhere for 24 h. Next, the cell monolayer was incubated in the presence of loading concentrations of compounds 2, 5 and 6 (0–400 µM) diluted in DMSO (final concentration 0.2%) for 24, 48 and 72 h. After the exposure time, cells were incubated with 100 μL/well of MTT (5 mg/mL) 1:10 with fresh growth medium (final concentration 0.5 mg/mL) for 4 h at 37 °C and 5% CO2. Finally, the MTT solution was removed and replaced with 100 µL/well of DMSO. Cells were incubated for an additional 20 min at 37 °C and 5% CO2 and afterward gently swirled for 10 min at room temperature. The optical density was measured at 540 nm by means of a spectrophotometer (Multiskan GO, Thermo Scientific, Monza, Italy). Results were expressed as the percentage of cells in the presence of vehicle (DMSO) set as 100% and each experiment was performed in triplicate (n = 3). Concentration-response curves and IC50 were fitted and calculated with the GraphPad Prism 5.0 (GraphPad Software, San Diego, CA, USA)[27].
In general terms: Tetrazolium dyes change colour on reduction, which living cells bring about.

Data set [4] relates to C. albicans ATCC 90028. Put plainly: Antifungal broth microdilution (EUCAST), standard strain. The class given is cell-based. The settings on record: Candida albicans. How it is done: (§2) The antifungal activity of the most representative compounds was evaluated versus one ATCC 90028 strain and 15 clinical isolates belonging to the most clinically relevant Candida spp. (C. albicans, C. tropicalis, and C. glabrata). All strains were stored at −80 °C in Sabouraud Broth (Oxoid LTD, Basingstoke, Hampshire, England) with 20% of glycerine until their use. The strains were grown on Sabouraud CAF agar (Thermo Fisher Scientific Waltham, MA, USA), and incubated for 24–48 h at 37 °C. […] The in vitro antifungal activity was determined by broth microdilution method with RPMI 1640 (Sigma-Aldrich. ST Louis, MO, USA) as recommended by EUCAST, and the E. Def 7.3, method document (http://www.eucast.org). […] Each plate included the following controls: (i) inoculum suspension (growth control), (ii) drug-free medium, (iii) medium with drug, and (iv) distilled water (used for the inoculum preparation). Fluconazole was used as a reference drug according to the EUCAST guidelines. The plates were incubated for 24 h at 37 °C, and then read with a plate reader at 530 nm. […] Three independent experiments were performed in triplicate.
A general note: In broth dilution the organism is exposed to a series of concentrations in liquid medium.

The target of data set [5] is T1, aromatase (CYP19A) (Homo sapiens, UniProt P11511).
T1 construct: purchased BioVision
T1 sequence (P11511 1-503): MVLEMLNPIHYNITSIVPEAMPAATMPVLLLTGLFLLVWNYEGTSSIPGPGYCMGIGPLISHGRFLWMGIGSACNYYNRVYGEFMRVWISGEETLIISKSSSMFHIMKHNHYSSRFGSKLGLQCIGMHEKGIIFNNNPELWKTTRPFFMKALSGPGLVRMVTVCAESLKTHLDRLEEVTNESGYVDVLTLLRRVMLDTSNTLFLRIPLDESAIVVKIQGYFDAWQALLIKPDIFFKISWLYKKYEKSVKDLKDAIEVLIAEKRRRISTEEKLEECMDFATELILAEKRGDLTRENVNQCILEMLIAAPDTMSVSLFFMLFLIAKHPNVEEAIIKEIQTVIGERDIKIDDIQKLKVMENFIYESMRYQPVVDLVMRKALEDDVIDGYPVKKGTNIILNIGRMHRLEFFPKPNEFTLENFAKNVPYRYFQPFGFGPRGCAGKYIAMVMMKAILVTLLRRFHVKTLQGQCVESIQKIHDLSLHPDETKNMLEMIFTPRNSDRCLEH
The data set can be described thus: Aromatase inhibition, fluorimetric assay kit (Aromatase-CYP19A Inhibitor Screening kit, BioVision). The class given is biochemical. The settings on record: read-out: Aromatase % inhibition.
Description: The aromatase inhibitory activity of the novel compounds was determined using a commercial fluorimetric kit (Aromatase CYP19A Inhibitor Screening kit, BioVision, Milpitas, CA, USA). The assay utilises a fluorogenic aromatase substrate, that is converted into a highly fluorescent metabolite detected in the visible range (Ex/Em = 488/527 nm), ensuring a high signal-to-background ratio with little interference by autofluorescence.

For data set [6], the target named is T2, Recombinant human iNOS (Homo sapiens, UniProt P35228).
T2 construct: purchased Enzo Life Sciences, Inc
Put plainly: iNOS inhibition, L-citrulline assay with fluorimetric (HPLC) detection. The data set is classed as biochemical. The conditions noted are these: for inhibition at 1 µM: read-out: iNOS % inhibition. How it is done: The injection volume was 5 μL.
Recombinant human iNOS was purchased from Enzo Life Sciences, Inc. (New York, USA).

Data set [7] has as its system MCF-7 cell line. Put plainly: Cytotoxicity test (lactate dehydrogenase release). The class given is cell-based, human. The conditions noted are these: MCF-7, 24 h, DMSO control set as 1. How it is done:
as §1
After 24 h, cell supernatants were collected from the MTT plate, centrifuged at 450 × g for 4 min and stored on ice. To quantify the cytotoxicity of loading concentrations of compounds 2, 5 and 6 (0–400 µM), the CytoTox 96® Non-Radioactive Cytotoxicity Assay (Promega Corporation, WI, USA) was performed. The CytoTox 96® Assay quantitatively measures lactate dehydrogenase (LDH), a stable cytosolic enzyme released upon cell lysis. The absorbance signal resulting from the conversion of a tetrazolium salt (iodonitrotetrazolium violet; INT) into a red formazan product was measured at 490 and 690 nm (background) with a spectrophotometer (Multiskan GO, Thermo Scientific, Monza, Italy). The results were normalised on MTT absorbances and expressed as fold increases on the LDH released by cultures in the presence of vehicle (DMSO) set as 1.

Data set [8] has as its target iNOS. More on the design: method as in PMID 26481362. The settings on record: cocrystallized ligand of iNOS; cited from earlier work.
In data set [9] the test system is C. glabrata clinical isolates. Put plainly: Antifungal broth microdilution (EUCAST), C. glabrata clinical isolates. The data set is classed as cell-based, Candida glabrata. The method, then: as §2
Data set [10] deals with C. tropicalis clinical isolates. Put plainly: Antifungal broth microdilution (EUCAST), C. tropicalis clinical isolates. The class given is cell-based, Candida tropicalis. How it is done: as §2
Data set [11] deals with C. albicans clinical isolates. The data set can be described thus: Antifungal broth microdilution (EUCAST), C. albicans clinical isolates. The settings on record: Candida albicans. The data set is classed as cell-based. The method, then: as §2
Data set [12] has as its target hCYP19A1. More on the design: method as in PMID 26481362. The settings on record: cocrystallized ligand of hCYP19A1; cited from earlier work.
Where [13] appears, read: 10 µM (lowest concentration tested).

Usually IC50 stands for the concentration at which inhibition is half-maximal. The term half-life denotes the time needed for the level to fall by half in the phase considered. The term MIC denotes the lowest concentration that inhibits growth of the organism. The term inhibition denotes the relative decrease from the control value, in per cent. What is called melting point is the temperature of the solid-liquid transition. In general, Ki refers to a measure of affinity in units of concentration, obtained from inhibition or displacement.

≈ marks a conversion by molar mass, not a printed value. Where “and” joins values, the source holds several entries; their conditions need not be identical. Equal entries are not always repeated. Where two headings read alike, the source gives them in different places. A value given as a limit tells only on which side of the number the result lay.

For `COc1ccc(S(=O)(=O)N2CCCC(Cn3ccnc3)C2)cc1Br` (centres unmarked) [Compound 3o], the half-maximal inhibitory concentration (IC50) in data set [1] (Figure 1) was 0.006 µM.

As for `O=C(NCc1ccccc1)OC(Cn1ccnc1)c1ccccc1` (centres unmarked) [Compound 13a], the aromatase % inhibition in [1] (at 1 µM) is given as 81%.

In turn, `O=C(OC(Cc1ccccc1)Cn1ccnc1)c1cc([N+](=O)[O-])cc([N+](=O)[O-])c1` (centres unmarked) [Compound 5, 1-benzyl-2-(1H-imidazol-1-yl)ethyl 3,5-dinitrobenzoate] had a melting point of 144 to 145 °C. In addition, in [2], the “Chemical stability in acidic medium” value is given as “stable” and the “Chemical stability in neutral medium” value is “stable”. For the same molecule, the half-life at 0.05 mg/mL in data set [2] (buffer) turned out to be 39 min. Also, the IC50 in [3] (MCF7, 24 h) came to 120 µM. Besides, the IC50 in data set [3] (MCF7, 48 h) turned out to be 82.5 µM. The IC50 in data set [3] (MCF7, 72 h) was 68.8 µM. The MIC in data set [4] (ATCC90028, 24 h) was greater than 64 µg/mL. The inhibition at 1 µM in data set [5] turned out to be 82 ± 3.8%. Besides, the iNOS % inhibition entry in [6] (compounds at 1 µM, normalised to 1400 W (positive control, 100% inhibition at 1 μM), triplicate, mean ± SD) is “complete enzyme inhibition”. The inhibition at 1 µM in [6] stood at 100 ± 1.7%. Besides, the “LDH released, fold increase vs control” value in data set [7] (setting [13]) came out at 1.91 folds. Moreover, the “LDH released, fold increase vs control” value in [7] (concentrations after the IC50 (120 µM)) is 6.25 folds and 7.50 folds.

As to `CCSC(=N)N` [ethylisothiourea], the Ki in data set [8] is 0.005 µM.

In the case of `O=C(OC(Cc1ccccc1)Cn1ccnc1)c1ccccc1` (centres unmarked) [Compound 2, 1-benzyl-2-(1H-imidazol-1-yl)ethyl benzoate], the melting point lay in the range of 68 to 69 °C. In addition, in [2], the “Chemical stability in acidic medium” value is “stable” and the “Chemical stability in neutral medium” value was “stable”. For the same molecule, the half-life at 0.05 mg/mL in data set [2] (aqueous NaOH solution) amounted to 48 min. Also, in [3] (MCF7, MCF-7, 24 h exposure), the IC50 was greater than 200 µM. Besides, in data set [4] (ATCC90028, C. albicans ATCC 90028, 24 h, ≥50% growth inhibition, read-out: MIC), the MIC came out at 16 µg/mL (≈ 52.2 µM). In addition, the inhibition at 1 µM in data set [5] was determined as 77 ± 1.8%. In addition, the inhibition at 1 µM in data set [6] is 100 ± 2.6%. Further, the MIC in data set [9] (C. glabrata 311/5) is given as greater than 64 µg/mL. In addition, the MIC in data set [9] (C. glabrata 495/5) is listed as greater than 64 µg/mL. Moreover, the MIC in [9] (Nakaseomyces glabratus, C. glabrata 365/5, read-out: MIC) is greater than 64 µg/mL. Moreover, the MIC in [10] (C. tropicalis 295/5) is reported as 64 µg/mL (≈ 209 µM). The MIC in data set [10] (Candida tropicalis, C. tropicalis 74/5, read-out: MIC) came to 64 µg/mL (≈ 209 µM). The “LDH released, fold increase vs control” value in data set [7] (setting [13]) was found to be 1.44 folds. In [11] (C. albicans 78/5), this molecule registered a minimal inhibitory concentration (MIC) of 16 µg/mL (≈ 52.2 µM). In data set [11] (C. albicans 231/5), the MIC stood at 16 µg/mL (≈ 52.2 µM). Further, the MIC in [11] (C. albicans 308/4) came to 64 µg/mL (≈ 209 µM). Also, the MIC in data set [11] (C. albicans 510/5) was 16 µg/mL (≈ 52.2 µM). This molecule also had an MIC in data set [11] (C. albicans 688/5) of 32 µg/mL (≈ 104 µM). The molecule further showed an MIC in data set [11] (C. albicans 712/5) of 32 µg/mL (≈ 104 µM). In data set [11] (C. albicans 887/5), this molecule yielded an MIC of 16 µg/mL (≈ 52.2 µM). In [11] (C. albicans 943/5), this molecule registered an MIC of 16 µg/mL (≈ 52.2 µM). In data set [11] (C. albicans 1009/40), this molecule showed an MIC of 16 µg/mL (≈ 52.2 µM). This molecule also displayed an MIC in data set [11] (C. albicans SF1) of 16 µg/mL (≈ 52.2 µM).

As for `C[C@]12CCC(=O)C=C1CC[C@@H]1[C@@H]2CC[C@]2(C)C(=O)CC[C@@H]12` [4-androstene-3,17-dione], the Ki in data set [12] was 0.02 µM.
